The values that follow come from article PMC7703437, “In Vitro Hepatic Metabolism of Curcumin Diethyl Disuccinate by Liver S9 from Different Animal Species” (Frontiers in Pharmacology, 2020).

Data set [1] can be described thus: In vitro metabolism profiling of CDD in dog liver S9 (1 mg/ml). It counts as in vitro ADME, dog (beagle). To be noted: beagle, liver S9; dog LS9 1 mg/ml; read-out: t 1/2 (CDD). Here is the method:
(§1) The metabolism profiles of CDD were investigated against HLS9, MLS9, DLS9, and RLS9. A stock solution of CDD was prepared at 150 µM in 50% acetonitrile in water before use. The metabolism study was initiated by spiking 735 µl of preincubated LS9 with 15 µl of CDD stock solution, and the mixture was subsequently incubated at 37°C. The final concentrations of CDD and LS9 were 3 μM and 1 mg/ml, respectively. A 50-µl aliquot from the mixture was collected at 0.5, 1, 2, 3, 4, 5, 10, 15, 30, 45, 60, 90, and 120 min and immediately mixed with 100 µl of ice-cold acetonitrile containing 0.45 µM of internal standard DMC to terminate the metabolic reaction. […] The sample at the initial time point (0 min) was prepared as the other samples, except that heat-inactivated HLS9, MLS9, DLS9, and RLS9 (80°C for 20 min; 1 mg/ml protein) were used.
(§2) The UHPLC system consisted of an Agilent series 1290 quaternary pump with an online degasser, autosampler, column oven, and diode array detector. The mobile phase was composed of (A) 0.1% (v/v) formic acid in acetonitrile and (B) 0.1% (v/v) formic acid in water. Each solution was filtered through a nylon filter (pore size, 0.22 µm; MS® Membrane Filters; Membrane Solutions, United States) before use. The mobile phase flow rate was kept at 1.2 ml/min in a gradient mode using the following elution program: 0–3.0 min, initial A-B (40:60, v/v); 4.5–7.0 min, isocratic elution A-B [50:50, (v/v); 8.5–11.0 min, isocratic elution A-B (60:40, v/v); and 12.0–17.0 min, isocratic elution A-B (40:60, v/v)]. CDD, curcumin, and MSCUR in the supernatant were partitioned using a C8 column (4.6 mm × 50 mm, 2.7 µm; HALO, Advanced Materials Technology, United States) with reference to DMC. The detection wavelength was set at 400 nm (λ max(CDD) = 400 nm, λ max(curcumin) = 427 nm, λ max(MSCUR) = 418 nm, and λ max(DMC) = 421 nm). The column was maintained at 35°C throughout the run, and the supernatant injection volume was set at 20 µl.
(§3) The concentrations of CDD, curcumin, and MSCUR in the supernatant were determined from the standard plots, which were prepared by spiking individual working solutions of the compounds to heat-inactivated HLS9, MLS9, DLS9, and RLS9 ([Alcorn et al., 2007]; [Montoro-Garcia et al., 2009]; [Singh et al., 2010]). These working standards were extracted with 100 µl of ice-cold acetonitrile containing 0.45 µM of DMC and then 120 μl of the supernatant was diluted with 40 μl of water prior to the UHPLC analysis. The peak area ratios of CDD, curcumin, and MSCUR to the internal standard were computed against linear concentration ranges of 0.025–4.5 µM CDD, 0.025–4.5 µM curcumin, and 0.0125–0.75 µM MSCUR, respectively, with the coefficient of determination (r^2) values greater than 0.99.
(§4) The percent content of CDD and the metabolites formed upon its incubation with LS9, namely, curcumin and MSCUR, was plotted against incubation time.
(§5) The following equations were adopted to describe the changes in CDD and MSCUR content over time (t): A = A0e^−k1t (2) B= k1A0/k2−k1(e^−k1t−e^−k2t), (3) where A0 is the CDD concentration at time 0, k 1 is the degradation rate constant of CDD, and k 2 is the degradation rate constant of MSCUR. k 1 and k 2 were determined by using Eqs. 2 and 3, respectively, with nonlinear regression analysis using the SOLVER function of Microsoft Excel for Office 365 MSO (16.0.12527.20986) ([Brown, 2001]). The half-life (t 1/2) was calculated using Eq. 4: t1/2=0.693/k (4)
(§6) The in vitro intrinsic clearance (CLint,in vitro) of CDD and MSCUR in LS9 was calculated using Eq. 5: CLint, in vitro= k × [V]incubation(ml)/[P]incubation(mg protein), (5) where [V]incubation is the incubation volume in ml, and [P]incubation is the amount of LS9. […]

The subject of the next data set is dog LS9 (DLS9; beagle). Described as above. It counts as in vitro ADME. The method, then:
as §1, §2, §3, §4, §5, §6

Data set [2] in a line: In vitro metabolism profiling of CDD, statements for LS9 from all tested species. It counts as in vitro ADME, human, monkey, dog, rat. To be noted: beagle (dog); Sprague-Dawley (rat), human, monkey, dog, rat, liver S9 (LS9); all LS9s; read-out: t 1/2 of CDD. The method, then: as §1, §2
(§7) The concentrations of CDD, curcumin, and MSCUR in the supernatant were determined from the standard plots, which were prepared by spiking individual working solutions of the compounds to heat-inactivated HLS9, MLS9, DLS9, and RLS9 ([Alcorn et al., 2007]; [Montoro-Garcia et al., 2009]; [Singh et al., 2010]). […]
(§8) The following equations were adopted to describe the changes in CDD and MSCUR content over time (t): A = A0e^−k1t (2) B= k1A0/k2−k1(e^−k1t−e^−k2t), (3) where A0 is the CDD concentration at time 0, k 1 is the degradation rate constant of CDD, and k 2 is the degradation rate constant of MSCUR. k 1 and k 2 were determined by using Eqs. […] The half-life (t 1/2) was calculated using Eq. 4: t1/2=0.693/k (4)

The subject of data set [3] is LS9 from all tested species (HLS9, MLS9, DLS9, RLS9). The description is as above. It counts as in vitro ADME, human, monkey, dog, rat. To be noted: within the first 15 min of incubation, LS9 1 mg/ml from all tested species, CDD 3 µM. The method, then: as §1, §2, §7, §8
In the next data set the test system is DLS9. Briefly: CDD depletion in DLS9 0.02 mg/ml (optimisation of incubation condition). It counts as in vitro ADME, dog. To be noted: CDD 3 μM. The method, then:
The metabolism profiles of CDD and curcumin formation profile were investigated against HLS9, MLS9, DLS9 and RLS9. A stock solution of CDD was prepared at 150 µM in 50% acetonitrile in water before use. The metabolism study was initiated by spiking a 588 µl pre-incubated LS9 with 12 µl CDD stock solution, and subsequently incubated at 37°C. The final concentrations of CDD and LS9 were 3 µM and 0.02 mg/ml, respectively. A 50 µl aliquot from the mixture was collected at 0.5, 1, 2, 3, 4, 5, 10, 15, 30, 45 and 60 min and was immediately mixed with 100 µl of ice-cold acetonitrile containing 0.45 µM of internal standard DMC to terminate the metabolic reaction. […] Samples of 120 µl of supernatant wee diluted with 40 µl of water prior to UHPLC analysis (Agilent series 1290, Agilent Technology, USA) by means of protocol outlined in Materials and Methods:“In vitro Metabolism Profiling of Curcumin Diethyl Disuccinate”. The sample at 0 min was prepared as other samples except that heat-inactivated HLS9, MLS9, DLS9 and RLS9 (80°C for 20 min; 1 mg/ml protein) were used. Duplicates were conducted for each experiment.
The peak area ratios of CDD and curcumin to internal standard in the supernatant were determined. The percent contents of CDD and curcumin were plotted against incubation time. The depletion of CDD was calculated with reference to the initial concentration. The saturated substrate was defined as % depletion less than 30.

Where “and” joins values, the source holds several entries; their conditions need not be identical. Equal values may be shown once.

Take `CCOC(=O)CCC(=O)Oc1ccc(/C=C/C(=O)/C=C(O)/C=C/c2ccc(OC(=O)CCC(=O)OCC)c(OC)c2)cc1OC` [CDD, curcumin diethyl disuccinate]: the half-life at 3 µM in data set [1] was 52.2 ± 15 s; in data set [2], below 62.4 s. In addition, in the data set with dog LS9 (DLS9; beagle) (dog LS9), the “CLint, in vitro(CDD)” value amounted to 0.85 ± 0.29 ml min^−1 mg protein^−1. In addition, the “k 1 (CDD)” value with dog LS9 (DLS9; beagle) (dog LS9 1 mg/ml, CDD 3 µM, 37°C) was 0.85 ± 0.29 min⁻¹. Also, the “CLint, in vivo(CDD)” value with dog LS9 (DLS9; beagle) (dog, scaled from CLint,in vitro with physiologically based scaling factors) was 198.61 ± 66.73 L/h/kg. The “CLint, in vivo total” value in the data set on dog LS9 (DLS9; beagle) (dog, sum of CLint,in vivo(CDD) and CLint,in vivo(MSCUR)) is given as 5,915.59 ± 535.14 L h^−1 kg^−1. In addition, the “CLH (predicted hepatic clearance)” value in the data set on dog LS9 (DLS9; beagle) (dog, well-stirred model, QH 40 ml min^−1 kg^−1, fup 0.0594) is reported as 2.38 ± 1.48 × 10^–3 L h^−1 kg^−1. Moreover, in data set [3], the CDD hydrolyzed result is “more than 95%”. Also, the “% CDD remaining” value in the data set on DLS9 (0.5 min) turned out to be 76.77%; in the data set with DLS9 (1 min), 66.99%; in the data set with DLS9 (2 min), 49.79%; with DLS9 (3 min), 42.26%; in the data set with DLS9 (4 min), 31.30%; with DLS9 (5 min), 25.06%. In addition, the “%Depletion of CDD” value in the data set on DLS9 (0.5 min (selected incubation time)) was 23% and 23.23%; in the data set on DLS9 (1 min) it was 33.01%; with DLS9 (2 min) it was 50.21%; with DLS9 (3 min) it was 57.74%; in the data set with DLS9 (4 min), 68.70%; with DLS9 (5 min) it was 74.94%.
